| Structure (SMILES) | melting point [°C] |
| --- | --- |
| COc1ccccc1OP(=O)(Oc1ccccc1OC)Oc1ccccc1OC | 91 |
| CCCCOC(=O)CC(O)(CC(=O)OCCCC)C(=O)OCCCC | -20 |
| O=C1CCC/C1=C1\C(=O)Nc2ccccc21 | 267 |
| O=C1C=Cc2ccccc2C1=O | 136 to 141 |
| CCc1ccccc1C(=O)N(NC(=O)c1ccccc1)C(C)(C)C | 178 |
| COc1ccc(-c2csc(/C(C#N)=N/Nc3cccc(C)c3C)n2)cc1 | 164 |
| COC12C(COC(N)=O)C3=C(C(=O)C(C)=C(Nc4cnccc4N)C3=O)N1CC1NC12 (stereo not given) | 159 |
| Cc1ccc(N)c(C)c1 | 16 |
| O=C(O)c1ccnc(Cl)c1 | 231 |
| CNc1cccc2ccccc12 | 174 |
| O=C(O)c1ccc(C(F)(F)F)cc1F | 168 |
| N#CCSc1ccc2ccccc2c1 | 83 to 86 |
| O=[N+]([O-])c1ccc(C(Cl)C(Cl)c2cccc(C(Cl)C(Cl)c3ccc([N+](=O)[O-])cc3[N+](=O)[O-])c2)c([N+](=O)[O-])c1 (stereo not given) | 90 to 108 |
| c1ccc2nsnc2c1 | 43 |
| CCCSc1sc(C(=O)OCC)c2c1C(=O)CCC2 | 136 to 139 |
| N#CC(c1ccccc1)N1CCOCC1 (stereo not given) | 69 to 71 |
| CNC(=O)Oc1cc(C)c(SC)c(C)c1 | 120 |
| N=C(N)NC(=N)N | 136 |
| Cc1ccc(C(c2ccc(C)o2)c2cc([N+](=O)[O-])ccc2O)o1 | 143 |
| Cc1ccc(N(CCO)CCO)cc1N=Nc1ccc([N+](=O)[O-])cc1 | 160 |
| Cc1ccc([N+](=O)[O-])cc1F | 35 |

| Structure (SMILES) | melting point [°C] |
| --- | --- |
| O=C(O)C1(C(=O)O)CCC1 | 157 to 161 |
| O=S(=O)(c1ccccc1)n1ccc2cc(Br)ccc21 | 90 to 93 |
| COc1ccc(N=C(S)SC)cc1 | 111 to 113 |
| CC12CCCCC1CCC1C2CCC2(C)C1CCC2(O)C#CCl (stereo not given) | 163 |
| O=C(CC(=O)C(F)(F)F)c1ccc2ccccc2c1 | 74 |
| O=C(O)c1cc([N+](=O)[O-])c(O)c([N+](=O)[O-])c1 | 250 |
| OCc1ccc(-c2cc(C(F)(F)F)cc(C(F)(F)F)c2)o1 | 110 to 113 |
| CCOC(=O)c1cc2c(=O)oc3ccccc3c2nc1C | 167 |
| CC(C)(Oc1ccc(CCNC(=O)c2ccc(Cl)cc2)cc1)C(=O)O | 186 |
| C#CCN1C(=O)COc2cc(F)c(N3C(=O)C4=C(CCCC4)C3=O)cc21 | 203 |
| CCCCCCCCCCCCCCCCCCCCCCCCCCCCCCCCCC | 72.6 |
| O=S(=O)(Cl)c1ccsc1 | 44 to 45 |
| Cc1n[nH]c(C)c1C(=O)O | 273 to 275 |
| FCC(F)(F)C(F)F | -82 |
| C[C@H]([C@@H](O)c1ccccc1)N1CCCC1 | 45 |
| COc1cc(C=O)cc(OC)c1OC | 75 |
| CNCCc1c[nH]c2ccccc12 | 88 |
| COC1=CC(C)C2CC3OC(=O)CC4C(C)=C(OC)C(=O)C(C2(C)C1=O)C34C (stereo not given) | 222 |
| O=[N+]([O-])c1ccc(F)c2nonc12 | 52 |
| NCP(=O)(O)O | 300 |
| O=C(/C=C/c1ccc(OCCCCl)cc1)c1ccccc1 | 74 |

Results, then the compound that gave them:

| melting point [°C] | Structure (SMILES) |
| --- | --- |
| 82 to 85 | O=C(CBr)c1ccc2ccccc2c1 |
| 105 | CCOC(=O)C1=C2c3ncccc3ON2C(Cl)C(Cl)C1Cl (stereo not given) |
| 139 to 142 | N#Cc1c(Cl)c(Cl)nc(Cl)c1Cl |
| 224 to 226 | COc1c(Br)cc(C(=O)O)cc1Br |
| 106 to 107 | O=Cc1ccccc1N1CCN(c2ccc(C(F)(F)F)cn2)CC1 |
| 128 to 130 | O=C1CCCN1c1ccc([N+](=O)[O-])cc1 |
| 195 | CC1C2CCCC(C2=NNC(N)=S)C2(O)CCCCC12 (stereo not given) |
| 40 to 45 | CCc1c(C)n[nH]c1C |
| 21 | O=C(O)C1CCCO1 (stereo not given) |
| 40 | C#Cc1cccnc1 |
| 93.5 to 98 | COCCOc1ccc(CCC(=O)O)cc1N |
| 277 to 279 | FC(F)(F)c1ccc2[nH]c(S)nc2c1 |
| 132 | O=C1C=CC2=CC(=O)C=CC2=C1 |
| -38 | CC(C)CCCC(C)CCCC(C)CCCCC(C)CCCC(C)CCCC(C)C (stereo not given) |
| 101 to 105 | O=C1NCC(CCl)O1 (stereo not given) |
| 39 to 42 | CCCCCCCCCCOc1ccccc1OCCCCCCCCCC |
| 259 to 263 | O=C(O)Cn1cc(Cl)c(=O)c(Cl)c1 |
| 88 to 89 | Nc1cc(N)cc(C(F)(F)F)c1 |
| 56 | OC1Cc2cccc(F)c21 (stereo not given) |
| 121 | O=C(O)CNC(=O)OCc1ccccc1 |
| 127 to 129 | Cc1onc(-c2c(F)cccc2Cl)c1C(N)=O |
| 205 | CC(CNC(=O)c1ccccc1)C(=O)OCC(=O)C12OC(C)(C)OC1CC1C3CCC4=CC(=O)C=CC4(C)C3(F)C(O)CC12C (stereo not given) |
| 199 to 201 | O=C(O)c1cnn2ccccc12 |
| 48 to 50 | O=C1NC2CCCCC12 (stereo not given) |

| melting point [°C] | Structure (SMILES) |
| --- | --- |
| 144 to 146 | COC1=C(OC)C(C(COS(=O)(=O)c2ccc(C)cc2)OS(=O)(=O)c2ccc(C)cc2)OC1=O (stereo not given) |
| 121 | COc1cc(C(=O)c2cccc(C)c2)c([N+](=O)[O-])cc1OC |
| 220 | Cc1nc(C2CCN(C(=O)OC(C)(C)C)CC2)sc1C=O |
| 278 | N#Cc1ccc(C(Cl)C(Cl)c2ccc(C(Cl)C(Cl)c3ccc(C#N)cc3[N+](=O)[O-])cc2)c([N+](=O)[O-])c1 (stereo not given) |
| 152 to 154 | NC(=O)c1ccc(F)cc1Cl |
| -60 | CC(O)CC(C)(C)C (stereo not given) |
| < 25 | CC1=CCC(=C(C)C)CC1 |
| 69 | c1ccc(SCCSc2ccccc2)cc1 |
| 69 | CCOc1ccc(Br)cc1C=O |
| 307 to 308 | Cc1cc(=O)[nH]c2c(/N=N/c3ccc(Cl)cc3)c(N)nn12 |
| 133 | CCN(CC)Cc1c(N)c2ccccc2oc1=O |
| 118 | CC12CCC(C1(C)C)C(CC(Br)=Cc1ccccc1)(C1(CC(Br)=Cc3ccccc3)C(=O)C3(C)CCC1C3(C)C)C2=O (stereo not given) |
| 33.5 | O=CCc1ccccc1 |
| 300 | Sc1nc2cc(Cl)ccc2[nH]1 |
| -105 | CC(C)CCCC(C)(C)C |
| 55.5 | Cc1c([N+](=O)[O-])cc(C(C)C)c(O)c1[N+](=O)[O-] |
| 80 to 82 | O=C(OCc1ccccc1)C(=O)OCc1ccccc1 |
| 44 | Cc1ccc([N+](=O)[O-])cc1S(=O)(=O)Cl |
| 126 | Cc1ccccc1N=Nc1c(N)ccc2ccccc12 |
| 239 | O=C(N=c1sc(C(=O)c2cccs2)nn1-c1ccccc1[N+](=O)[O-])c1ccccc1 |
| 79 to 84 | O=S(=O)(Cl)c1cc(S(=O)(=O)Cl)c(Cl)s1 |
| 76 | Cc1cc(Br)cc(C)c1O |
| -99 | CCCCCC(C)CCC (stereo not given) |
| 78 | NC(=O)c1sccc1Br |
